These results are taken from PubChem BioAssay (NCI).

Among the test systems are ACHN renal; BT-549 breast; CAKI-1 renal; K-562 leukemia; KM12 colon; MDA-MB-435; OVCAR-3 ovarian; SF-539 CNS; SK-MEL-28 melanoma; SK-OV-3 ovarian; UACC-62 melanoma; MDA-MB-231 breast.
Assay in all cases: NCI-60 cell line screen, 48 h

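Cells were grown in 96-well plates and exposed to each compound for 48 hours at five concentrations; endpoints were interpolated linearly between bracketing concentrations, or set to the highest concentration if not reached. TGI marks complete inhibition of growth.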

With `COc1cc(CNC(=O)[C@H](Cc2ccc(O)cn2)NC(C)=O)cc(OC)c1`, the TGI with ACHN renal, in the experiment with BT-549 breast, in the experiment on CAKI-1 renal, with K-562 leukemia, in the experiment with KM12 colon and in the experiment with MDA-MB-435 was more than 100 µM each time. In addition, the TGI with OVCAR-3 ovarian, in the experiment with SF-539 CNS, in the experiment on SK-MEL-28 melanoma, in the experiment on SK-OV-3 ovarian and with UACC-62 melanoma was more than 100 µM in each case.
Take `O=C1SC(c2ccccc2)(c2ccccc2)c2ccccc21`: the TGI in the experiment with ACHN renal, with CAKI-1 renal, in the experiment on K-562 leukemia, in the experiment with KM12 colon, with OVCAR-3 ovarian and in the experiment with SF-539 CNS was more than 100 µM each time. Besides, the TGI in the experiment with SK-MEL-28 melanoma, in the experiment on SK-OV-3 ovarian and with UACC-62 melanoma was more than 100 µM each time.
With `CC(=O)[O-].CC(=O)[O-].O=C(N/N=C/c1cc(Cl)cc(Cl)c1[OH2+])c1ccncc1.[Zn+2]`, the TGI with ACHN renal was more than 100 µM; in the experiment with K-562 leukemia, more than 100 µM; in the experiment on KM12 colon, more than 100 µM; in the experiment with OVCAR-3 ovarian, 94.8 µM; with SF-539 CNS, more than 100 µM; in the experiment with SK-MEL-28 melanoma, more than 100 µM. Further, the TGI with SK-OV-3 ovarian and in the experiment on UACC-62 melanoma was more than 100 µM throughout.
With `O=c1[nH]c(=O)n(C2OC(CO)C(O)C2O)cc1OCCc1ccccc1` (stereo not drawn), the TGI with ACHN renal, with CAKI-1 renal, in the experiment on KM12 colon, with MDA-MB-231 breast, with MDA-MB-435 and in the experiment with OVCAR-3 ovarian was more than 100 µM in each case. The TGI in the experiment on SF-539 CNS, in the experiment on SK-MEL-28 melanoma, in the experiment with SK-OV-3 ovarian and in the experiment with UACC-62 melanoma was more than 100 µM each time.
With `Cc1ccc(NC(=O)C(=O)C2NC(=S)NC2=O)c([N+](=O)[O-])c1` (stereo not drawn), the TGI in the experiment on ACHN renal, in the experiment with CAKI-1 renal, in the experiment on K-562 leukemia, in the experiment with KM12 colon, in the experiment on OVCAR-3 ovarian and with SF-539 CNS was more than 100 µM in each case. Also, the TGI with SK-MEL-28 melanoma, with SK-OV-3 ovarian and with UACC-62 melanoma was more than 100 µM throughout.
As to `Fc1ccc(NCn2nc(COc3ccccc3Cl)n(/N=C/c3ccc(-c4ccc(Cl)cc4Cl)o3)c2=S)cc1Cl`, the TGI with ACHN renal was more than 100 µM; in the experiment with CAKI-1 renal, more than 100 µM; with K-562 leukemia, 43.6 µM; in the experiment on KM12 colon, 99 µM; in the experiment on MDA-MB-231 breast, more than 100 µM; in the experiment on MDA-MB-435, more than 100 µM. The TGI in the experiment on OVCAR-3 ovarian, with SF-539 CNS, in the experiment on SK-MEL-28 melanoma and in the experiment on SK-OV-3 ovarian was more than 100 µM each time.
In the case of `Cc1ccc(S(=O)(=O)N/N=C/c2oc(-c3ccccc3Cl)c(-c3ccccc3Cl)c2[N+](=O)[O-])cc1`, the TGI was 39.2 µM in the experiment with ACHN renal; more than 100 µM with CAKI-1 renal; more than 100 µM with K-562 leukemia; more than 100 µM in the experiment with KM12 colon; more than 100 µM in the experiment on OVCAR-3 ovarian; 46.1 µM with SF-539 CNS. Besides, the TGI is 62.9 µM in the experiment with SK-MEL-28 melanoma, more than 100 µM with SK-OV-3 ovarian and 65.8 µM in the experiment on UACC-62 melanoma.
`CCn1c(-c2ccccc2)nc2c1C(=O)c1ccccc1C2=O`: the TGI with BT-549 breast was 60.6 µM; in the experiment on K-562 leukemia, more than 100 µM; in the experiment on KM12 colon it was 73.8 µM; in the experiment with MDA-MB-435 it was 33.8 µM; with OVCAR-3 ovarian it was 49.5 µM; with SF-539 CNS, more than 100 µM. Moreover, the TGI with SK-MEL-28 melanoma was more than 100 µM; with SK-OV-3 ovarian, 86 µM; with UACC-62 melanoma it was 60.2 µM.
In the case of `C[N+](C)(C)Cc1c(CC#N)[nH]c2ccccc12`, the TGI with ACHN renal, in the experiment on CAKI-1 renal, in the experiment on K-562 leukemia, in the experiment on KM12 colon, in the experiment on OVCAR-3 ovarian and in the experiment with SF-539 CNS was more than 100 µM in each case. The TGI in the experiment on SK-MEL-28 melanoma and in the experiment with UACC-62 melanoma was more than 100 µM in each case.
For the compound `CC(=O)OCC1OC(n2c3c(cc(C#N)c2=S)CCCCCC3)C(OC(C)=O)C(OC(C)=O)C1OC(C)=O` (stereo not drawn), the TGI with ACHN renal, in the experiment with BT-549 breast, in the experiment on K-562 leukemia, in the experiment on KM12 colon, with MDA-MB-231 breast and in the experiment on MDA-MB-435 was more than 100 µM in each case. Further, the TGI in the experiment on OVCAR-3 ovarian, with SF-539 CNS, in the experiment with SK-MEL-28 melanoma and with UACC-62 melanoma was more than 100 µM in each case.
On to `O=c1[nH]c(=O)n(C2CC(O)C(CO)O2)cc1C#Cc1cc(C(F)(F)F)cc(C(F)(F)F)c1` (stereo not drawn), for which the TGI in the experiment with ACHN renal was more than 100 µM; in the experiment on CAKI-1 renal, more than 100 µM; in the experiment with K-562 leukemia, more than 100 µM; in the experiment with KM12 colon, more than 100 µM; in the experiment on OVCAR-3 ovarian it was more than 100 µM; in the experiment on SF-539 CNS it was more than 90.9 µM. The TGI in the experiment on SK-MEL-28 melanoma was more than 100 µM; in the experiment with SK-OV-3 ovarian it was more than 100 µM; with UACC-62 melanoma, more than 31.6 µM.
On to `CCCN1CN(c2ccccc2)C2(CCN(CCCC(=O)c3ccc(F)cc3)CC2)C1=O`, for which the TGI in the experiment on ACHN renal is 12.9 µM; in the experiment on CAKI-1 renal it was 41.1 µM; with K-562 leukemia, more than 58.4 µM; in the experiment on KM12 colon, 31 µM; in the experiment with MDA-MB-231 breast, 18.1 µM; in the experiment with MDA-MB-435, 23.5 µM. Besides, the TGI amounted to 30.3 µM with OVCAR-3 ovarian; 15.5 µM with SF-539 CNS; 34.3 µM with SK-MEL-28 melanoma; 43.1 µM with SK-OV-3 ovarian; 31.3 µM with UACC-62 melanoma.
Take `COc1cc(C2c3[nH]c4ccc(F)cc4c3C[C@H]3COC(=O)N23)cc(OC)c1O` (stereo partly drawn): the TGI with ACHN renal was 26.4 µM; in the experiment on BT-549 breast it was more than 100 µM; in the experiment on CAKI-1 renal, 44.7 µM; in the experiment with K-562 leukemia, more than 100 µM; in the experiment with KM12 colon, 26.3 µM; in the experiment with MDA-MB-231 breast it was 47.4 µM. Also, the TGI was 56 µM in the experiment with OVCAR-3 ovarian; 11.4 µM in the experiment on SF-539 CNS; 33.6 µM with SK-MEL-28 melanoma; 57.2 µM in the experiment with SK-OV-3 ovarian; 32.6 µM in the experiment on UACC-62 melanoma.
Regarding `Cc1nc(N)c(N2CCN(Cc3ccccc3)CC2)c(=O)[nH]1`, the TGI with ACHN renal, in the experiment with BT-549 breast, in the experiment with K-562 leukemia, with KM12 colon, in the experiment with MDA-MB-231 breast and in the experiment on MDA-MB-435 was more than 100 µM each time. Also, the TGI in the experiment on OVCAR-3 ovarian, in the experiment with SF-539 CNS and in the experiment with SK-MEL-28 melanoma was more than 100 µM throughout.
